Test results: US20120065165A1, “COMPOSITIONS AND METHODS OF TREATING ENDOTHELIAL DISORDERS” (ARGINETIX, INC, priority 2008, published 2012)

Assays:
rat aortic tissues = assay: cGMP levels in aortic rings of old rats incubated with sildenafil and ABH (cGMP EIA); format: cell-based; conditions: sildenafil 0 nM
Procedure: The source of tissue was old (22 to 24 months) male Fischer 344 rats purchased from National Institute for Aging (NIA). The rats were anesthetized in an isoflurane chamber and euthanized. The entire length of the aorta (thoracic, arch, abdominal) were dissected out and cleaned free of connective tissue. These aorta were then sectioned into ˜3 mm long rings. Samples were collected from 2 rats and pooled. […] Rings were incubated in varying concentrations of sildenafil (0-2000 nM) and ABH (0-500 nM) prepared in 200 μL Krebs buffer for 10 min at 37° C. The rings were then snap frozen in liquid nitrogen following treatment. The next day, samples were homogenized in 200 μL 6% TCA buffer (prepared by adding TCA to DI water) at 4° C. for extraction of cyclic nucleotides. The samples were then centrifuged at 12,000 rpm for 5 min at 4° C. Protein pellets were re-dissolved in PBS to determine protein concentration, and supernatant was reserved for cGMP detection. […] ABH (MW 211.45): A stock solution of ABH at a concentration of 100 mM was prepared by dissolving 21.1 mg of ABH into 1 ml Krebs solution. This was used to prepare 5 ml of a 1 mM stock. 200 μL of the 1 mM solution were dispensed into column 12 of a 96-well plate. Six 2× dilutions were prepared in the plate. 200 μL Krebs were dispensed in column 5 to get a concentration range of 0-1000 nM (2× of final concentration). Sildenafil (MW 474.5): A stock solution of sildenafil at a concentartion of 100 mM was prepared by dissolving 47.4 mg of sildenafil into 1 ml Krebs solution; 5 ml of 2 mM stock was prepared from this. Row A received 200 μL of Krebs buffer (0 mM sildenafil), mixed well, and adjusted to a final volume of 200 μL. Next, 200 μL of the 2 mM sildenafil stock was dispensed into row H of the 96 well plate already containing the ABH dilutions ([…]). Six 2× dilutions were prepared from this to get the final concentration ranges for the two drugs. cGMP levels were determined with a cGMP kit (Amersham cGMP Enzyme immunoassay Biotrak (EIA) System Cat #RPN226) and run in accordance with the manufacture's recommendations. The assay uses a competitive fluorescent immunoassay format to measure levels of cGMP. It combines the use of a peroxidase-labelled cGMP conjugate, a specific antiserum which can be immobilized on to pre-coated microplates, and a one-pot stabilized substrate solution. […] In the absence of cGMP most of the HRP conjugate is bound to the antibody and yields a high fluorescence. Increasing concentrations of cGMP competitively decreases the binding of the HRP conjugate, decreasing the measured fluorescence (HRP activity). […] The plate was then incubated for 2 hrs at room temperature with shaking after which it is washed and the fluorescent substrate is added. The plate was incubated for an additional 10 min and then read on a Molecular Devices Gemini EM plate reader set at Ex 530 nm, Em 590 nm (endpoint mode). The signal is reported to be stable for up to 24 hrs, but was generally read within 2 hrs. […] These values were calculated based on the resultant ratio of fluorescence reading of sample divided by fluorescense reading with no cGMP (pmols/mg). For each concentration combination of sildenafil and ABH administered to cells, absorbance (OD at 450 nm) was measured. From these values, the absorbance adjusted for non-specific binding (NSB) for each sample (OD-NSB(B)) was determined from the absorbance (B) divided by the absorbance without cGMP (Bo). Using this value and the standard curve for cGMP, the log (fmol) is found and, after adjusting for the quantity of protein, the pmols of cGMP/mg protein is calculated.

aged Fisher rats = assay: Vascular stiffness by pulse wave velocity (PWV) in Fisher rats; format: in vivo, rat
Procedure: When the heart contracts it generates a pulse, or energy wave, that travels through the circulatory system. […] PWV was determined in aged (22-26 months) Fisher rats, treated with ABH as described in Example 1. […] PWV was measured before and after 28 days of treatment with ABH (6 mg/kg) (See FIG. 5A). ABH improved vascular function in aortic rings tested in organ chambers (See FIG. 5B), while an endothelial-independent NO donor, SNP had no effect (C). *p<0.01 vs. young and #p<0.05 vs. old pre-treated, (n=3-8). […] This affect was not observed in untreated aged rats. There was a small but statistically significant increase in vascular stiffness in young control rats over the 28 days of the experiment. This change however was not observed in rats that were treated with ABH.

old rat aorta = assay: ROS production in aortic rings (DHE fluorescence); format: cell-based; conditions: aged rat aortas
From the text: ABH improves endothelial function by inhibiting arginase and consequently increasing NO production (by increasing L-arginine availability to eNOS) and decreasing levels of ROS (by preventing eNOS uncoupling). […] Aortic rings were dissected and pinned down, endothelial side up, on a silastic coated culture dish, and then exposed to either the NO-sensitive dye DAF, or the O2-sensitive dye DHE. Since the interaction of NO or ROS with its specific dye is cumulative, the rate of production of each species is proportional to the slope of the fluorescence emitted from the dye as measured using epifluorescence microscopy. […] SNP endothelial-independent NO donor was included as a control (Santhanam et al 2007).
This supports the hypothesis that arginase inhibition results in increased vascular NO production. A corollary of this effect is a decrease in ROS production by re-coupling eNOS to NO production. […] This resulted from deranged NOS activity (uncoupled NOS), since ROS levels could be reduced using the NOS-inhibitor nitro-L-arginine methyl ester (FIG. 6C). […] Similar techniques are used to examine whether ABH can restore NO production and decrease ROS production in vascular endothelial cells and corporal tissue from type 2 diabetic rats.

arginase II = molecular target: T1, arginase II (Homo sapiens, UniProt P78540); conditions: cited from earlier work
T1 sequence (P78540 23-354): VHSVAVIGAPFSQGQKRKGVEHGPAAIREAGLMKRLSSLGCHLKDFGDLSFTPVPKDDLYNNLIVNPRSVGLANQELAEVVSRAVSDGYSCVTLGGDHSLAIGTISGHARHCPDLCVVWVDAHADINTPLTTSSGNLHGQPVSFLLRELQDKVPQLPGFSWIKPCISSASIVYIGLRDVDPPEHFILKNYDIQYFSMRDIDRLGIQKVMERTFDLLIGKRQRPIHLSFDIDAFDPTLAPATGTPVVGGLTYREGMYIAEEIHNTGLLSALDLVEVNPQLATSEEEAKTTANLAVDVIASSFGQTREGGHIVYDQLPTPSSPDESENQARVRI

N[C@@H](CCCCB(O)O)C(=O)O [ABH, 2(S)-Amino-6-boronohexanoic acid]
Theoretical response T(x,y) based on an additive effect (rat aortic tissues; ABH 7.81 nM): 0.34 pmol/mg | pmols of cGMP/mg protein produced P(x,y) (rat aortic tissues; ABH 7.81 nM): 0.34 pmols/mg | Theoretical response T(x,y) based on an additive effect (rat aortic tissues; ABH 31.25 nM): 0.90 pmol/mg | pmols of cGMP/mg protein produced P(x,y) (rat aortic tissues; ABH 31.25 nM): 0.90 pmols/mg | Theoretical response T(x,y) based on an additive effect (rat aortic tissues; ABH 125 nM): 1.14 pmol/mg | pmols of cGMP/mg protein produced P(x,y) (rat aortic tissues; ABH 125 nM): 1.14 pmols/mg | Theoretical response T(x,y) based on an additive effect (rat aortic tissues; ABH 500 nM): 0.16 pmol/mg | pmols of cGMP/mg protein produced P(x,y) (rat aortic tissues; ABH 500 nM): 0.16 pmols/mg | vascular stiffness (pulse wave velocity, PWV) (aged Fisher rats; aged (22-26 months) rats, ABH 6 mg/kg 28 days): marked decrease in vascular stiffness | increase in vascular stiffness over the 28 days of the experiment (aged Fisher rats; young rats, ABH treated vs young control rats): not observed | ROS production (old rat aorta): significantly reduced | potency as inhibitor of arginase II (arginase II): most potent inhibitor
